Assay: physchem
Format: physicochemical
Conditions: not given
Experimental: Measurement of Log P values as provided herein was performed according to EEC directive 79/831 Annex V.A8 by HPLC (High Performance Liquid Chromatography) on reversed phase columns with the following methods: • ^[a]
If more than one Log P value is available within the same method, all the values are given and separated by “+”.
Lambda-max-values were determined using UV-spectra from 200 nm to 400 nm and the peak values of the chromatographic signals

Structure (SMILES) | LogP
O=C(O)c1c(Oc2cccc(C(F)(F)F)c2)cnc(Cl)c1I [Compound 1-17] | 2.49^[a]
CC1ON=C(c2cc(Cl)ncc2Oc2cccc(C(F)(F)F)c2)NC1c1ccc(Cl)cc1 (mixture of isomers) [Compound I-042] | 4.19^[a]
Cc1ccc(CC2CON=C(c3cc(Cl)ncc3Oc3cccc(Cl)c3)N2)c(C)c1 (single isomer, unassigned) [Compound I-012] | 4.53^[a]
Cc1ccc(CC2CON=C(c3cc(Cl)ncc3Oc3cccc(Cl)c3F)N2)c(Cl)c1 (racemic) [Compound I-087] | 4.66^[a]
CCc1cccc(Oc2cnc(Cl)cc2C2=NOCC(Cc3ccc(Cl)cc3Cl)N2)c1F (centres unmarked) [Compound I-141] | 5.16^[a]
FC(F)(F)c1cccc(Oc2cnc(Cl)cc2C2=NOCC(Cc3csc(Cl)c3)N2)c1 (centres unmarked) [Compound I-138] | 4.38^[a]
Cc1ccc(CC(CCl)NC(=O)c2c(Oc3cccc(C(F)(F)F)c3)cnc(Cl)c2F)c(C)c1 (centres unmarked) [14-01] | 5.03^[a]
COc1cccc(Oc2cnc(Cl)cc2C(=O)O)c1 [Compound 1-09] | 2.34^[a]
COC(=O)Cc1cccc(Oc2cnc(Cl)cc2C2=NOCC(Cc3ccc(C)cc3C)N2)c1 (racemic) [Compound I-078] | 4.08^[a]
Cc1cccc(Oc2cnc(Cl)cc2C(=O)O)c1 [Compound 1-08] | 2.60^[a]
Cc1ccc(CC2CON=C(c3cc(Cl)ncc3Oc3cccc(C4CC4)c3)N2)c(C)c1 (racemic) [Compound I-013] | 4.89^[a]
FC(F)(F)Oc1cccc(Oc2cnc(Cl)cc2C2=NOCC(Cc3ccc(Cl)cc3Cl)N2)c1 (centres unmarked) [Compound I-148] | 4.88^[a]
CCOc1cccc(Oc2cnc(Cl)cc2C2=NOCC(Cc3ccc(C)cc3C)N2)c1 (centres unmarked) [Compound I-142] | 4.59^[a]
CCc1cccc(Oc2cnc(Cl)cc2C2=NOCC(Cc3ccc(C)cc3C)N2)c1 (racemic) [Compound I-092] | 5.04^[a]
O=C(O)c1cc(Cl)nc(F)c1Oc1cccc(C(F)(F)F)c1 [Compound 1-14] | 2.95^[a]
NOCC(Cc1ccc(Br)cc1Cl)NC(=O)c1cc(Cl)ncc1Oc1cccc(C(F)F)c1 (centres unmarked) [4-10] | 3.46^[a]
Cc1cccc(Oc2cnc(C)cc2C2=NOCC(Cc3ccc(C)cc3C)N2)c1 (racemic) [Compound I-008] | 3.61^[a]
Cc1ccc(CC(CCl)NC(=O)c2cc(Cl)ncc2Oc2cccc(C(F)(F)F)c2)cc1 (centres unmarked) [14-03] | 5.00^[a]
Cc1ccc(CC(CCl)NC(=NO)c2cc(Cl)ncc2Oc2cccc(C(F)(F)F)c2)cc1 (centres unmarked) [16-04] | 4.59^[a]
Cc1cc(Cl)ccc1CC1CON=C(c2cc(Cl)ncc2Oc2cccc(Cl)c2F)N1 (racemic) [Compound I-083] | 4.59^[a]

Structure (SMILES) | LogP
Cc1ccc(C(CCl)NC(=O)c2cc(Cl)ncc2Oc2cccc(C(F)(F)F)c2)cc1 (centres unmarked) [14-12] | 4.49^[a]
O=C(NC(CON1C(=O)c2ccccc2C1=O)Cc1ccc(Cl)cc1Cl)c1cc(Cl)ncc1Oc1cccc(C2CC2)c1 (centres unmarked) [3-03] | 5.62^[a]
CSc1c(Cl)ncc(Oc2cccc(C(F)(F)F)c2)c1C1=NOCC(Cc2ccc(C)cc2C)N1 (racemic) [Compound I-121] | 4.67^[a]
Cc1ccc(CC2CON=C(c3cc(C)ncc3Oc3cccc(C4CC4)c3F)N2)c(C)c1 (racemic) [Compound I-017] | 4.03^[a]
C=Cc1ccc(CC2CON=C(c3cc(Cl)ncc3Oc3cccc(C(F)F)c3)N2)c(Cl)c1 (racemic) [Compound I-040] | 4.29^[a]
COc1cccc(Oc2cnc(Cl)cc2C2=NOCC(Cc3ccc(C)cc3C)N2)c1F (centres unmarked) [Compound I-147] | 4.06^[a]
Fc1c(Oc2cnc(Cl)cc2C2=NOCC(Cc3ccc(Cl)cc3Cl)N2)cccc1OC(F)(F)F (centres unmarked) [Compound I-149] | 4.88^[a]
Cc1ccc(CC(CCl)NC(=NO)c2cc(Cl)ncc2Br)c(Cl)c1 (centres unmarked) [18-02] | 3.85^[a]
Cc1ccc(CC2CON=C(c3cc(C)ncc3Oc3cccc(C4CC4)c3)N2)c(Cl)c1 (racemic) [Compound I-030] | 3.98^[a]
FC(F)c1cccc(Oc2cnc(Cl)cc2C2=NOCC(Cc3ccc(Br)cc3Cl)N2)c1 (racemic) [Compound I-004] | 4.32^[a]
Cc1ccc(CC2CON=C(c3cc(Cl)ncc3Br)N2)c(Cl)c1 (centres unmarked) [7-05] | 3.38^[a]
C=Cc1cccc(Oc2cnc(Cl)cc2C2=NOCC(Cc3ccc(Cl)cc3Cl)N2)c1 (racemic) [Compound I-099] | 4.85^[a]
Cc1cccc(Oc2cnc(Cl)cc2C(=O)NC(CON2C(=O)c3ccccc3C2=O)Cc2ccc(C)cc2C)c1 (centres unmarked) [3-07] | 5.16^[a]
Cc1cc(Br)ccc1CC(CCl)NC(=O)c1cc(Cl)ncc1Oc1cccc(C(F)(F)F)c1 (centres unmarked) [14-08] | 5.31^[a]
Cc1ccc(CC2CON=C(c3cc(Cl)ncc3Oc3ccc(C)c(Cl)c3)N2)c(C)c1 (racemic) [Compound I-076] | 4.97^[a]
Cc1ccc(CC2CON=C(c3cc(Cl)nc(Cl)c3Oc3cccc(C(F)(F)F)c3)N2)c(C)c1 (racemic) [Compound I-127] | 5.08^[a]
Cc1ccc(Cl)c(CC2CON=C(c3cc(Cl)ncc3Br)N2)c1 (centres unmarked) [7-09] | 3.46^[a]
Cc1ccc(C2CCON=C(c3cc(Cl)ncc3Oc3cccc(C(F)(F)F)c3)N2)cc1 (centres unmarked) [Compound I-146] | 2.06^[a]
Clc1ccc(CC2CON=C(c3cc(Cl)ncc3Br)N2)c(Cl)c1 (centres unmarked) [7-04] | 3.45^[a]
COC(=O)c1cc(C#C[Si](C)(C)C)ncc1Oc1cccc(C(F)(F)F)c1 [Compound 1-03] | 5.35^[a]

Structure (SMILES) | LogP
FC(F)(F)Oc1ccc(C2CON=C(c3cc(Cl)ncc3Oc3cccc(C(F)(F)F)c3)N2)cc1 (racemic) [Compound I-055] | 4.26^[a]
Cc1ccc(CC(CON)NC(=O)c2cc(Cl)ncc2Br)c(C)c1 (centres unmarked) [Compound 6-01] | 2.20^[a]
Cc1ccc(CC(CON2C(=O)c3ccccc3C2=O)NC(=O)c2cc(Cl)ncc2Br)c(C)c1 (centres unmarked) [Compound 6-02] | 4.13^[a]
Cc1cccc(CC(CCl)NC(=O)c2cc(Cl)ncc2Br)c1Cl (centres unmarked) [17-05] | 3.97 ^[a]
COC(=O)c1cc(C(C)=O)ncc1Oc1cccc(C(F)(F)F)c1 [Compound 1-04] | 3.59^[a]
COc1ccc(C2CON=C(c3cc(Cl)ncc3Oc3cccc(C(F)(F)F)c3)N2)cc1 (racemic) [Compound I-045] | 3.60^[a]
CCc1cc(C2=NOCC(Cc3ccc(C)cc3C)N2)c(Oc2cccc(C3CC3)c2)cn1 (racemic) [Compound I-027] | 4.40^[a]
Cc1ccc(CC2CON=C(c3cc(Cl)ncc3Oc3ccccc3)N2)c(C)c1 (racemic) [Compound I-063] | 4.17^[a]
FC(F)(F)c1cccc(Oc2cnc(Cl)cc2C2=NOCC(c3ccc4ccccc4c3)N2)c1 (racemic) [Compound I-053] | 4.20^[a]
OC1CON=C(c2cc(Cl)ncc2Oc2cccc(C(F)(F)F)c2)N1 (centres unmarked) [Compound 32-01] | 2.11^[a]
FC(F)(F)c1cccc(Oc2cnc(Cl)cc2C2=NCC(Cc3ccc(Cl)cc3)N2)c1 (racemic) [Compound I-106] | 2.45^[a]
Cc1ccc(CC(CON2C(=O)c3ccccc3C2=O)NC(=O)c2cc(Cl)ncc2Oc2cccc(C(F)F)c2)c(C)c1 (centres unmarked) [3-11] | 4.69^[a]
COc1cc(C2=NOCC(Cc3ccc(C)cc3Cl)N2)c(Oc2cccc(Cl)c2F)cn1 (racemic) [Compound I-067] | 4.51^[a]
Cc1ccc(Cl)c(CC2CON=C(c3cc(Cl)ncc3Oc3cccc(Cl)c3F)N2)c1 (racemic) [Compound I-118] | 4.52^[a]
Cc1ccc(CC2CON=C(c3cc(Cl)ncc3Oc3cccc(C4CCC4)c3)N2)c(C)c1 (racemic) [Compound I-101] | 5.50^[a]
Cc1ccc(CC(CCNC(c2ccccc2)(c2ccccc2)c2ccccc2)NC(=O)c2cc(Cl)ncc2Oc2cccc(C(F)(F)F)c2)c(C)c1 (centres unmarked) [4-14] | 5.35^[a]
Cc1ccc(CC2CON=C(c3cc(Cl)ncc3Oc3cccc(C)c3F)N2)c(Cl)c1 (centres unmarked) [Compound I-136] | 4.66^[a]
Cc1ccc(CC2CON=C(c3c(Oc4cccc(C(F)(F)F)c4)cnc(Cl)c3C)N2)c(C)c1 (racemic) [Compound I-124] | 4.55^[a]
Cc1ccc(CC(CCl)NC(=NO)c2cc(Cl)ncc2Oc2cccc(C(F)(F)F)c2)c(C)c1 (centres unmarked) [16-03] | 4.80^[a]
Cc1ccc(CC(CCl)NC(=O)c2cc(Cl)ncc2Oc2cccc(C(F)(F)F)c2)c(C)c1 (centres unmarked) [14-02] | 5.32^[a]

Same assay, conditions: Table 11, compounds of formula (6); method [a]: LC-UV, acidic range, 0.1% formic acid in water and acetonitrile

Structure (SMILES) | chromatographic logP
Cc1ccc(CC(CON2C(=O)c3ccccc3C2=O)NC(=O)c2cc(C(F)(F)F)ncc2Br)c(C)c1 (racemic) [Compound 6-04, 5-bromo-N-{(2RS)-1-(2,4-dimethylphenyl)-3-[(1,3-dioxo-1,3-dihydro-2H-isoindol-2-yl)oxy]propan-2-yl}-2-(trifluoromethyl)isonicotinamide] | 4.4
Cc1ccc(CC(CON)NC(=O)c2cc(C(F)(F)F)ncc2Br)c(C)c1 (racemic) [Compound 6-03, N-[(2RS)-1-(aminooxy)-3-(2,4-dimethylphenyl)propan-2-yl]-5-bromo-2-(trifluoromethyl)isonicotinamide] | 2.51

Same assay, conditions: Table 17, compounds of formula (10); method [a]: LC-UV, acidic range, 0.1% formic acid in water and acetonitrile

Structure (SMILES) | chromatographic logP
NC(=NO)c1cc(Cl)ncc1Oc1cccc(C(F)(F)F)c1 [Compound 10-01, 2-chloro-N′-hydroxy-5-[3-(trifluoromethyl)phenoxy]pyridine-4-carboximidamide] | 2.41

Same assay, conditions: Table 22, compounds of formula (17); method [a]

Structure (SMILES) | chromatographic logP
Cc1ccc(CC(CCl)NC(=O)c2ccncc2Br)cc1 (racemic) [Compound 17-01, 3-bromo-N-[(2RS)-1-chloro-3-(4-methylphenyl)propan-2-yl]isonicotinamide] | 2.8

Same assay, conditions: Table 24, compounds of formula (18); method [a]

Structure (SMILES) | chromatographic logP
Cc1ccc(CC(CCl)NC(=NO)c2ccncc2Br)cc1 (racemic) [Compound 18-01, 3-bromo-N-[(2RS)-1-chloro-3-(4-methylphenyl)propan-2-yl]-N′-hydroxypyridine-4-carboximidamide] | 2.78

From patent publication US12534456B2, “Heterocyclyl pyridines as novel fungicides” (Bayer Aktiengesellschaft, priority 2020, dated 2026)
